Consider four molecules from US6022495A, “Photochromic benzopyrano-fused naphthopyrans” (Transitions Optical, Inc., priority 1998, dated 2000).

Data set [1] can be described thus: Visible lambda max of the activated form in polymer test squares (Varian Cary 3 UV-Visible spectrophotometer). Particulars: activated (colored) form in test square of BPA 2EO DMA / poly(ethylene glycol) 600 dimethacrylate, 1.5×10^-3 molal. Format: physicochemical. As to the method:
(§1) Testing was done with the photochromic compounds prepared in Examples 1-11 in the following manner. A quantity of each photochromic compound calculated to yield a 1.5×10^-3 molal solution was added to a flask containing 50 grams of a monomer blend of 4 parts ethoxylated bisphenol A dimethacrylate (BPA 2EO DMA), 1 part poly(ethylene glycol) 600 dimethacrylate, and 0.033 weight percent 2,2'-azobis(2-methyl propionitrile) (AIBN). Each photochromic compound was dissolved into the monomer blend by stirring and gentle heating. After a clear solution was obtained, it was poured into a flat sheet mold having the interior dimensions of 2.2 mm×6 inches (15.24 cm)×6 inches (15.24 cm). The mold was sealed and placed in a horizontal air flow, programmable oven programmed to increase the temperature from 40° C. to 95° C. over […], hold the temperature at 95° C. for 3 hours, lower it to 60° C. over a 2 hour interval and then hold at 60° C. for 16 hours. After the mold was opened, the polymer sheet was cut using a diamond blade saw into 2 inch (5.1 centimeters) test squares.
The Δ OD/min, which represents the sensitivity of the photochromic compound's response to UV light, was measured over the first five (5) seconds of UV exposure, then expressed on a per minute basis. The saturation optical density (Δ OD@ Saturation) was taken under identical conditions as the Δ OD/min, except UV exposure was continued for 15 minutes. The lambda max (Vis) is the wavelength in nanometers (nm) in the visible spectrum at which the maximum absorption of the activated (colored) form of the photochromic compound in a test square occurs. The lambda max (Vis) wavelength was determined by testing the photochromic test square polymerizates of Part A in a Varian Cary 3 UV-Visible spectrophotometer. The Bleach Rate (T 1/2) is the time interval in seconds for the absorbance of the activated form of the photochromic compound in the test squares to reach one half the highest absorbance at room temperature (72° F., 22.20C.) after removal of the source of activating light.

A short description of data set [2]: Photochromic response of polymer test squares on an optical bench. Particulars: for ΔOD @ Saturation: UV exposure continued for 15 minutes; for ΔOD @ Saturation / Sensitivity ΔOD/min: 72° F. (22.2° C.); for Sensitivity ΔOD/min: first five (5) seconds of UV exposure, expressed per minute; for Bleach Rate T 1/2: time for absorbance of activated form to reach one half the highest absorbance at room temperature (72° F.) after removal of activating light. Format: physicochemical. As to the method: as §1
The photochromic test squares prepared in Part A were tested for photochromic response on an optical bench. Prior to testing on the optical bench, the photochromic test squares were exposed to 365 nanometer ultraviolet light for about 15 minutes to activate the photochromic compounds and then placed in a 76° C. oven for about 15 minutes to bleach or inactivate the photochromic compounds. The test squares were then cooled to room temperature, exposed to fluorescent room lighting for at least 2 hours and then kept covered for at least 2 hours prior to testing on an optical bench maintained at 72° F. (22.2° C.). The bench was fitted with a 150 watt Xenon arc lamp, a remote controlled shutter, a copper sulfate bath acting as a heat sink for the arc lamp, a Schott WG-320 nm cut-off filter which removes short wavelength radiation; neutral density filter(s) and a sample holder in which the square to be tested was inserted. The power output of the optical bench, i.e., the dosage of light that the sample lens would be exposed to, was calibrated with a photochromic test square used as a reference standard. […] The UV-A detector was placed into the sample holder and the light output was measured. Adjustments to the power output were made by increasing or decreasing the lamp wattage or by adding or removing neutral density filters in the light path.
A monitoring, collimated beam of light from a tungsten lamp was passed through the square at a small angle (approximately […]) normal to the square. After passing through the square, the light from the tungsten lamp was directed to a detector through Spectral Energy Corp. GM-200 monochromator set at the previously determined visible lambda max of the photochromic compound being measured. The output signals from the detector were processed by a radiometer.
Change in optical density (ΔOD) was determined by inserting a test square in the bleached state into the sample holder, adjusting the transmittance scale to 100%, opening the shutter from the Xenon lamp to provide ultraviolet radiation to change the test square from the bleached state to an activated (i.e., darkened) state, measuring the transmittance in the activated state, and calculating the change in optical density according to the formula: ΔOD=log(100/% Ta), where % Ta is the percent transmittance in the activated state and the logarithm is to the base 10.
The Δ OD/min, which represents the sensitivity of the photochromic compound's response to UV light, was measured over the first five (5) seconds of UV exposure, then expressed on a per minute basis. The saturation optical density (Δ OD@ Saturation) was taken under identical conditions as the Δ OD/min, except UV exposure was continued for 15 minutes. […]

On to `COc1ccc(C2(c3ccccc3)C=Cc3c4c(c5ccccc5c3O2)-c2cc(OC)c(OC)cc2C(C)(C)O4)cc1` (stereo not drawn) [Compound 8, 6-(4-methoxyphenyl)-6-phenyl-12,13-dimethoxy-10,10-dimethyl-6,10-dihydro[2]benzopyrano [3',4':3,4]naphtho(1,2-b)pyran], for which the “lambda max (Vis)” value in data set [1] turned out to be 602 nanometers. Besides, in data set [2], the “ΔOD @ Saturation” value is reported as 0.21, the “Sensitivity ΔOD/min” value was 0.08 ΔOD/min and the “Bleach Rate T 1/2” value came to 216 s.
Take `COc1ccc(C2(c3ccc(OC)cc3)C=Cc3c(c4c5ccc(OC)cc5c(=O)oc4c4ccccc34)O2)cc1` [Compound 9A, 2,2-bis(4-methoxyphenyl)-12-methoxy-10-oxo-2,10-dihydro[2]benzopyrano[4',3':3,4]naphtho(2,1-b)pyran]: the “lambda max (Vis)” value in data set [1] came out at 478 nanometers. For the same molecule, in data set [2], the “ΔOD @ Saturation” value was 0.12, the “Sensitivity ΔOD/min” value is 0.25 ΔOD/min and the “Bleach Rate T 1/2” value is 24 s.
Turning to `O=c1oc2ccccc2c2c1c1c(c3ccccc32)OC(c2ccccc2)(c2ccccc2)C=C1` [Compound 10, 6,6-diphenyl-9-oxo-6,9-dihydro[1]benzopyrano[3',4':3,4]naphtho(1,2-b)pyran], the “lambda max (Vis)” value in data set [1] was found to be 484 nanometers. Moreover, in data set [2], the “ΔOD @ Saturation” value amounted to 0.26, the “Sensitivity ΔOD/min” value is 0.69 ΔOD/min and the “Bleach Rate T 1/2” value amounted to 19 s.
Regarding `O=c1oc2c3ccc4c(c3ccc2c2ccccc12)C=CC(c1ccccc1)(c1ccccc1)O4` [Compound 11, 3,3-diphenyl-8-oxo-3,8-dihydro[2]benzopyrano[3',4':5,6]naphtho(2,1-b)pyran], in data set [1], the “lambda max (Vis)” value worked out at 466 nanometers. Further, in data set [2], the “ΔOD @ Saturation” value amounted to 0.02 and the “Sensitivity ΔOD/min” value was 0.12 ΔOD/min.
